Counter-ions that a name gives are not always drawn.
Target: T1, WT/R232 STING protein (Homo sapiens, UniProt Q86WV6, H232R)
T1 construct: host or cells: HEK293T
Assay: Luciferase reporter assay in HEK293T-hSTING-Luciferase cells, WT/R232
Assay type: cell-based
Conditions: 20 hr stimulation, read-out: R232 Activity (EC50 range)
Description: • a) Stable STING expressing cells—Stable HEK293T STING-expressing cell lines were generated using plasmids purchased from Invivogen, Calif., USA, that contain STING cDNA cloned into the pUNO-1 vector under hEF1-HTLV promoter and containing the Blasticidin selection cassette. The plasmids hSTING(R232), hSTING(H232), hSTING(HAQ) were directly procured from Invivogen while hSTING (AQ) and hSTING (Q) were derived from hSTING(HAQ) and hSTING (R232) plasmids respectively by using a PCR based site directed mutagenesis method. These vectors were individually transfected into HEK293T cells using Lipofectamine (Invitrogen) and transfected cells were selected under Blasticidin selection. These transfected cells were further subjected to clonal selection using the limiting dilution method to obtain clonally pure populations of HEK cells transfected with each of the above mentioned human STING variants. Only those clones were selected in which ligand independent activation of STING was minimal. • b) Stable Luciferase reporter gene expressing cells—Stable HEK293T Luciferase reporter gene expressing cell lines were generated using pCDNA4 plasmids under an IRF-inducible promoter. This promoter is comprised of five tandem interferon-stimulated response elements (ISRE) fused to an ISG54 minimal promoter. This vector was transfected into HEK293T cells using Lipofectamine (Invitrogen) and transfected cells were selected under Zeocin selection. These transfected cells were further subjected to clonal selection using the limiting dilution method to obtain clonally pure populations of HEK cells transfected the Luciferase reporter construct. Only those clones were selected in which ligand independent induction of luciferase was minimal.
5×10^5 clonally selected HEK293T-hSTING-Luciferase cells were seeded in 384-well plates in growth medium and stimulated with novel compounds. After 20 hr of stimulation supernatant were removed and secretary reporter gene activity were measured using the Quanti-Luc detection system (Invivogen) on a Spectramax i3X luminometer.
All compounds were first tested in a primary screen using WT/R232 STING protein to obtain a ‘fold-induction’ over baseline levels of protein activity.

T1 sequence (Q86WV6 whole entry H232R): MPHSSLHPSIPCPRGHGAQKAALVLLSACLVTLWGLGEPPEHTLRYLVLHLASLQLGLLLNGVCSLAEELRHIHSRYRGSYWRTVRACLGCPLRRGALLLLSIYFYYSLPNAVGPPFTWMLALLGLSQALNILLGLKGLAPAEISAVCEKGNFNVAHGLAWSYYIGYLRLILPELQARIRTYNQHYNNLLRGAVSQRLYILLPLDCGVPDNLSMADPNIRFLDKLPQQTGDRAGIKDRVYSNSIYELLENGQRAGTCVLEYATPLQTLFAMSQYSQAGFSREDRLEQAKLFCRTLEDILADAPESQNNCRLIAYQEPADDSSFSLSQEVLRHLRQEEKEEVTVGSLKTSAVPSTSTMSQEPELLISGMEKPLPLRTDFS

| Structure (SMILES) | EC50 |
| --- | --- |
| O=C(NCc1ccco1)c1ccc2c(c1)N(CC1CCCCC1)C(=O)CS2 [Example 15, 4-(cyclohexyl-methyl)-N-(furan-2-ylmethyl)-3-oxo-3,4-dihydro-2H-benzo[b-1,4]thiazine-6-carboxamide] | > 10 µM |
| O=C(NCc1ccco1)c1cc2c(cn1)SCC(=O)N2Cc1c(F)cccc1Cl [Example 182, 1-(2-chloro-6-fluorobenzyl)-N-(furan-2-ylmethyl)-2-oxo-2,3-dihydro-1H-pyrido[3,4-b-1,4]thiazine-7-carboxamide] | > 10 µM |
| O=C(NCc1ccco1)c1ccc2c(c1)N(Cc1ccccc1)CC[S+]2[O-] (stereo not shown) [Example 251, 4-Benzyl-N-(furan-2-ylmethyl)-3,4-dihydro-2H-benzo[b-1,4]thiazine-6-carboxamide 1-oxide] | > 10 µM |
| O=C(NCc1ccccc1Cl)c1ccc2c(c1)N(Cc1ccccc1Cl)C(=O)CS2 [Example 123, N,4-bis(2-chlorobenzyl)-3-oxo-3,4-dihydro-2H-benzo[b-1,4]thiazine-6-carboxamide] | > 10 µM |
| O=C(NCc1ccco1)c1ccc2c(c1)N(Cc1ccc(Cl)cc1)C(=O)CS2 [Example 119, 4-(4-chlorobenzyl)-N-(furan-2-ylmethyl)-3-oxo-3,4-dihydro-2H-benzo[b-1,4]thiazine-6-carboxamide] | 1 to 10 µM |
| O=C(NCc1cccc(F)c1)c1ccc2c(c1)N(Cc1c(F)cccc1Cl)C(=O)CS2 [Example 38, 4-(2-chloro-6-fluorobenzyl)-N-(3-fluorobenzyl)-3-oxo-3,4-dihydro-2H-benzo[b-1,4]thiazine-6-carboxamide] | 1 to 10 µM |
| O=C(NCc1ccc(F)cc1F)c1cnc2c(c1)N(Cc1cc(F)cc(F)c1)C(=O)CC2 [Example 277, N-(2,4-difluorobenzyl)-5-(3,5-difluorobenzyl)-6-oxo-5,6,7,8-tetrahydro-1,5-naphthyridine-3-carboxamide] | 1 to 10 µM |
| O=C(NCc1ccccc1)c1ccc2c(c1)N(Cc1c(F)cccc1Cl)C(=O)CS2 [Example 126, N-benzyl-4-(2-chloro-6-fluorobenzyl)-3-oxo-3,4-dihydro-2H-benzo[b-1,4]thiazine-6-carboxamide] | 1 to 10 µM |
| NCc1cc(C(=O)NCc2c(F)cc(F)cc2F)cc2c1SCC(=O)N2Cc1ccc(F)cc1 [Example 224, 8-(aminomethyl)-4-(4-fluorobenzyl)-3-oxo-N-(2,4,6-trifluorobenzyl)-3,4-dihydro-2H-benzo[b][1,4] thiazine-6-carboxamide hydrochloride] | > 10 µM |
| CC1(F)Sc2ccc(C(=O)NCc3c(F)cc(F)cc3F)cc2N(Cc2c(F)cccc2Cl)C1=O (stereo not shown) [Example 165, 4-(2-chloro-6-fluorobenzyl)-2-fluoro-2-methyl-3-oxo-N-(2,4,6-trifluorobenzyl)-3,4-dihydro-2H-benzo[b][1,4] thiazine-6-carboxamide] | > 10 µM |
| O=C(NCc1ccco1)c1ccc2c(c1)N(CC(O)c1ccccc1)CCS2 (stereo not shown) [Example 248, N-(furan-2-ylmethyl)-4-(2-hydroxy-2-phenylethyl)-3,4-dihydro-2H-benzo[b-1,4]thiazine-6-carboxamide] | > 10 µM |
| CC1Sc2ccc(C(=O)NCc3cnn(C)c3)cc2N(Cc2cc(F)cc(F)c2)C1=O (stereo not shown) [Example 169, 4-(3,5-difluorobenzyl)-2-methyl-N-((1-methyl-1H-pyrazol-4-yl)methyl)-3-oxo-3,4-dihydro-2H-benzo[b][1,4] thiazine-6-carboxamide] | > 10 µM |
| O=C(NCc1ccccc1-c1ccccc1)c1ccc2c(c1)N(Cc1c(F)cccc1Cl)C(=O)CS2 [Example 46, N-([1,1′-biphenyl]-2-ylmethyl)-4-(2-chloro-6-fluorobenzyl)-3-oxo-3,4-dihyddro-2H-benzo[b][1,4] thiazine-6-carboxamide] | > 10 µM |
| COc1cc(CN2C(=O)C(C)Sc3ncc(C(=O)NCc4c(F)cc(F)cc4F)cc32)ccn1 (stereo not shown) [Example 206, 1-((2-methoxypyridin-4-yl)methyl)-3-methyl-2-oxo-N-(2,4,6-trifluorobenzyl)-2,3-dihydro-1H-pyrido[2,3-b][1,4] thiazine-7-carboxamide] | 1 to 10 µM |
| Cc1cccc(CNC(=O)c2ccc3c(c2)N(Cc2ccccc2)C(=O)CS3)c1 [Example 76, 4-benzyl-N-(3-methylbenzyl)-3-oxo-3,4-dihydro-2H-benzo[b-1,4]thiazine-6-carboxamide] | > 10 µM |
| O=C(NCc1ccco1)c1ccc2c(c1)N(CC(=O)N1CCc3ccccc31)C(=O)CS2 [Example 3, N-(furan-2-ylmethyl)-4-(2-(indolin-1-yl)-2-oxoethyl)-3-oxo-3,4-dihyrdo-2H-benzo[b-1,4]thiazine-6-carboxamide] | > 10 µM |

| Structure (SMILES) | EC50 |
| --- | --- |
| O=C(NCc1ccco1)c1ccc2c(c1)N(CCS(=O)(=O)c1ccccc1)C(=O)CS2 [Example 103, N-(furan-2-ylmethyl)-3-oxo-4-(2-(phenylsulfonyl)ethyl)-3,4-dihydro-2H-benzo[b-1,4]thiazine-6-carboxamide] | > 10 µM |
| O=C(NCc1ccco1)c1ccc2c(c1)N(CCc1cccc(C(F)(F)F)c1)C(=O)CS2 [Example 92, N-(furan-2-ylmethyl)-3-oxo-4-(3-(trifluoromethyl)phenethyl)-3,4-dihydro-2H-benzo[b-1,4]thiazine-6-carboxamide] | > 10 µM |
| CN1CCCC(CN2C(=O)CSc3ccc(C(=O)NCc4ccco4)cc32)C1 (stereo not shown) [Example 98, N-(furan-2-ylmethyl)-4-((1-methylpiperidin-3-yl)methyl)-3-oxo-3,4-dihydro-2H-benzo[b-1,4]thiazine-6-carboxamide] | > 10 µM |
| O=C(NCc1ccc(F)cc1F)c1cnc2c(c1)N(Cc1ccc(F)cc1)C(=O)CC2 [Example 280, N-(2,4-difluorobenzyl)-5-(4-fluorobenzyl)-6-oxo-5,6,7,8-tetrahydro-1,5-naphthyridine-3-carboxamide] | > 10 µM |
| O=C(NCc1ccco1)c1cc2c(cc1C1CC1)SCC(=O)N2Cc1ccccc1F [Example 229, 7-cyclopropyl-4-(2-fluorobenzyl)-N-(furan-2-ylmethyl)-3-oxo-3,4-dihydro-2H-benzo[b-1,4]thiazine-6-carboxamide] | > 10 µM |
| O=C(NCc1ccco1)c1cc2c(cc1Br)SCC(=O)N2Cc1ccccc1F [Example 228, 7-bromo-4-(2-fluorobenzyl)-N-(furan-2-ylmethyl)-3-oxo-3,4-dihydro-2H-benzo[b][1,4]thiazine-6-carboxamide] | > 10 µM |
| O=C(NCc1ccco1)c1ccc2c(c1)N(Cc1ccccc1F)CCS2 [Example 247, 4-(2-fluorobenzyl)-N-(furan-2-ylmethyl)-3,4-dihydro-2H-benzo[b-1,4]thiazine-6-carboxamide] | > 10 µM |
| CC1Sc2ncc(C(=O)NCc3cnccn3)cc2N(Cc2cc(F)cc(F)c2)C1=O (stereo not shown) [Example 217, 1-(3,5-difluorobenzyl)-3-methyl oxo-N-(pyrazin-2-ylmethyl)-2,3 dihydro-1H-pyrido[2,3-b][1,4]thiazine-7-carboxamide] | > 10 µM |
| N#Cc1ccccc1CN1C(=O)CSc2ccc(C(=O)NCc3ccco3)cc21 [Example 94, 4-(2-cyanobenzyl)-N-(furan-2-ylmethyl)-3-oxo-3,4-dihydro-2H-benzo[b-1,4]thiazine-6-carboxamide] | > 10 µM |
| O=C(NCc1ccoc1)c1ccc2c(c1)N(Cc1ccccc1)C(=O)CS2 [Example 50, 4-benzyl-N-(furan-3-ylmethyl)-3-oxo-3,4-dihydro-2H-benzo[b-1,4]thiazine-6-carboxamide] | > 10 µM |
| O=C(NCc1ccco1)c1ccc2c(c1)N(Cc1cc(Cl)cc(C(F)(F)F)c1)C(=O)CS2 [Example 102, 4-(3-chloro-5-(trifluoromethyl)benzyl)-N-(furan-2-ylmethyl)-3-oxo-3,4-dihydro-2H-benzo[b-1,4]thiazine-6-carboxamide] | 1 to 10 µM |
| O=C(NCc1c(F)cc(F)cc1F)c1ccc2c(n1)N(Cc1cc(F)cc(F)c1)C(=O)CC2 [Example 283, (3,5-difluorobenzyl)-7-oxo-N-(2,4,6-trifluorobenzyl)-5,6,7,8-tetrahydro-1,8-naphthyridine-2-carboxamide] | 1 to 10 µM |
| COc1ccc(CCNC(=O)c2ccc3c(c2)N(Cc2ccccc2)C(=O)CS3)cc1OC [Example 171, 4-benzyl-N-(3,4-dimethoxy-phenethyl)-3-oxo-3,4-dihydro-2H-benzo[b][1,4] thiazine-6-carboxamide] | > 10 µM |
| O=C(NCC1CCCCC1)c1ccc2c(c1)N(C(=O)c1c(F)cccc1Cl)CCS2 [Example 257, 4-(2-chloro-6-fluorobenzoyl)-N-(cyclohexylmethyl)-3,4-dihydro-2H-benzo[b][1,4]thiazine-6-carboxamide] | 1 to 10 µM |
| Cc1cc(C(=O)NCc2ccco2)cc2c1SCC(=O)N2Cc1ccccc1F [Example 226, 4-(2-Fluorobenzyl)-N-(furan-2-ylmethyl)-8-methyl-3-oxo-3,4-dihydro-2H-benzo[b-1,4]thiazine-6-carboxamide] | > 10 µM |

— US20200138827A1, “SMALL MOLECULE MODULATORS OF HUMAN STING” (Curadev Pharma Limited, priority 2017, published 2020)
